# Values quoted from earlier work, collected in patent publication US20120201914A1, “Method and Composition for Improving Animal Oral Health” (priority 2011, published 2012).
# Test system: various oral pathogens, such as S. mutans, C. albicans, A. actinomycetemcomitans, F. nucleatum, and P. gingivalis
# Details: against various oral pathogens; recent studies
row,Structure (SMILES),antibacterial activity
1,"CC/C=C\C/C=C\C/C=C\CCCCCCCC(=O)O [ALA, α-linolenic acid]",antibacterial activities
2,CC/C=C\C/C=C\C/C=C\CCCCCCCC(=O)OCC [ALA-EE],antibacterial activities
3,CC/C=C\C/C=C\C/C=C\CCCCCCCC(=O)OC [ALA-ME],antibacterial activities
4,CC/C=C\C/C=C\C/C=C\C/C=C\C/C=C\C/C=C\CCC(=O)OCC [DHA-EE],antibacterial activities
5,CC/C=C\C/C=C\C/C=C\C/C=C\C/C=C\C/C=C\CCC(=O)OC [DHA-ME],antibacterial activities
6,CC/C=C\C/C=C\C/C=C\C/C=C\C/C=C\CCCC(=O)OCC [EPA-EE],antibacterial activities
7,CC/C=C\C/C=C\C/C=C\C/C=C\C/C=C\CCCC(=O)OC [EPA-ME],antibacterial activities
